Results taken from patent US7303763B2, “Compositions for conjugated estrogens and associated methods” (Watson Laboratories, Inc., priority 2001, dated 2007).

Experiment: Accelerated stability study of coated 0.625 mg conjugated estrogens tablets (active compounds and degradation products per USP, LOD)
Type: physicochemical
Conditions: for Change: initial % found versus 40c
Excerpt: (§1) Stability was monitored under different storage conditions.
as §1

[1] = acrylic-coated 0.625 mg tablets, Lot EXPWS 1251, 10% Eudragit/RS:RL (2:1), Initial
[2] = acrylic-coated tablets, Lot EXPWS 1251, 40c, 75% RH/1m
[3] = acrylic-coated tablets, Lot EXPWS 1251, 40c, 75% RH/2m
[4] = acrylic-coated tablets, Lot EXPWS 1251, 40c, 75% RH/3m
[5] = acrylic-coated tablets, Lot EXPWS 1251, 50c, 75% RH/2 wks
[6] = acrylic-coated tablets, Lot EXPWS 1251, 75% RH/3m
[7] = sugar-coated 0.625 mg tablets, Lot EXPWS 1246, Initial
[8] = sugar-coated tablets, Lot EXPWS 1246, 40c, 75% RH/1 mnth
[9] = sugar-coated tablets, Lot EXPWS 1246, 40c, 75% RH/2 mnth
[10] = sugar-coated tablets, Lot EXPWS 1246, 50c, 75% RH/2 wks

Row | SMILES | % Found [1] [%] | % Found [2] [%] | % Initial [2] [%] | % Found [3] [%] | % Initial [3] [%] | % Found [4] [%] | % Initial [4] [%] | % Found [5] [%] | % Initial [5] [%] | Change [6] | % Found [7] [%] | % Found [8] [%] | % Initial [8] [%] | % Found [9] [%] | % Initial [9] [%] | % Found [10] [%] | % Initial [10] [%]
1 | C[C@]12CCc3c(ccc4cc(O)ccc34)[C@@H]1CC[C@H]2O [17a-dihydroequilenin] | 1.65 | 2.03 | 123.0 | 2.34 | 141.8 | 2.82 | 170.9 | 1.79 | 108.5 | −1.17 | 2.05 | 2.16 | 105.4 | 2.2 | 107.3 | 2.19 | 106.8
2 | C[C@]12CC[C@H]3C(=CCc4cc(O)ccc43)[C@@H]1CC[C@H]2O [17a-dihydroequilin] | 17.9 | 17.9 | 100.0 | 17.6 | 98.3 | 18.1 | 101.1 | 17.4 | 97.2 | −0.2 | 14.0 | 14.3 | 102.1 | 14.5 | 103.6 | 14.5 | 103.6
3 | C[C@]12CC[C@@H]3c4ccc(O)cc4CC[C@H]3[C@@H]1CC[C@H]2O [17a-estradiol] | 4.6 | 4.7 | 102.2 | 4.7 | 102.2 | 4.8 | 104.3 | 4.5 | 97.8 | −0.2 | 3.8 | 3.9 | 102.6 | 3.9 | 102.6 | 3.8 | 100.0
4 | C[C@]12CCc3c(ccc4cc(O)ccc34)C1CCC2O (stereo partly drawn) [17b-dihydroequilenin] | 0.77 | 0.97 | 126.0 | 0.86 | 111.7 | 0.68 | 88.3 | 0.67 | 87.0 | 0.09 | 0.56 | 0.58 | 103.6 | 0.44 | 78.6 | 0.63 | 112.5
5 | C[C@]12CC[C@H]3C(=CCc4cc(O)ccc43)[C@@H]1CC[C@@H]2O [17b-dihydroequilin] | 2.3 | 2.6 | 108.7 | 2.4 | 104.3 | 2.4 | 104.3 | 2.2 | 95.7 | −0.1 | 1.3 | 1.3 | 100.0 | 1.4 | 107.7 | 1.3 | 100.0
6 | C[C@]12CC[C@@H]3c4ccc(O)cc4CC[C@H]3[C@@H]1CC[C@@H]2O [17b-estradiol] | 1.26 | 0.90 | 71.4 | 0.96 | 76.2 | 0.88 | 69.8 | 1.11 | 88.1 | 0.38 | 0.60 | 0.56 | 93.3 | 0.62 | 103.3 | 0.59 | 98.3
7 | C[C@]12CCc3c(ccc4cc(O)ccc34)[C@@H]1CCC2=O [Equilenin] | 2.2 | 2.3 | 104.5 | 2.6 | 118.2 | 3.0 | 136.4 | 2.5 | 113.6 | −0.8 | 2.6 | 2.8 | 107.7 | 2.8 | 107.7 | 2.8 | 107.7
8 | C[C@]12CC[C@H]3C(=CCc4cc(O)ccc43)[C@@H]1CCC2=O [Equilin] | 27.3 | 27.1 | 99.3 | 26.5 | 97.1 | 26.4 | 96.7 | 26.5 | 97.1 | 0.9 | 22.7 | 23.0 | 101.3 | 23 | 101.3 | 23.3 | 102.6
9 | C[C@]12CCC3=C(CCc4cc(O)ccc43)[C@@H]1CCC2=O [d8,9 dehydroesterone] | 4.15 | 4.13 | 99.5 | 4.02 | 96.9 | 3.91 | 94.2 | 4.07 | 98.1 | 0.24 | 4.72 | 4.68 | 99.2 | 4.53 | 96.0 | 4.91 | 104.0
